Assay results: patent US20250123282A1, “METHODS FOR EVALUATION AND TREATMENT OF TYROSINE KINASE INHIBITOR (TKI)-RESISTANT ACUTE MYELOID LEUKEMIA” (LOMA LINDA UNIVERSITY, priority 2021, published 2025)

Columns and labels:
MV4-11 cells [1] = assay: FACS time course of CD44+pBAD+ and Ki67+CD33+CD44+ populations in TKI-treated MV4-11; format: cell-based, human
Excerpt: To follow the cell fate of TKI-treated MV4-11 and MOLM-14, culturing of blasts were continued by performing medium change every 2-3 days. […] The BAD protein is a pro-apoptotic member of the BCL-2 gene family, which is involved in initiating apoptosis. Dephosphorylated BAD is pro-apoptotic by binding BCL-2 and inactivating BCL-2, while phosphorylated BAD (pBAD) is anti-apoptotic by leaving BCL-2 free to inhibit BAX-triggered apoptosis.
(§1) Small Molecular Inhibitors and in vitro & ex vivo Treatment. […] The dose of 80 nM for the four TKIs was selected based on their dose-dependent cytotoxicity in previous reports. […] Both GILT and QUIZ were reported to start to suppress the tumorigenic clustering and c-Kit at the dose of 80 nM. […] The combination of 5 μM 5-Azacitidine (AZA) and 80 nM 1α,25-Dihydroxyvitamin D3 (VD3) was added to the experimental group similar to the previous report. As combination agents to treat blasts in vitro, one dose of 80 nM GILT with one dose of either 100 nM Venetoclax (BCL2 inhibitor), 10 μM (R)-Lisofylline (STAT4 inhibitor), 100 nM AZD1208 (PIM inhibitor), 500 nM PF-06826647 (TYK2 inhibitor), or 500 nM AT9283 (JAK2/3 inhibitor) were added to 1 ml of 1×10^6 cells for each experimental group in 24 well plates. Three days after the one dose treatment, cells were then collected for either analyses by FACS and qPCR, or re-plated into 24 well plates for continued culture. At different time points, re-plated cells were collected for analyses by FACS and qPCR. Medium change was performed every 2-3 days.
Flow Cytometry (FACS). Cells were harvested and examined for the expression of cell surface biomarkers (CD) and intracellular proteins by multichromatic FACS as previously described. About 1×10^4˜10^6 cells in 100 μl FACS buffer (PBS containing 1% FBS and 0.05% sodium azide) were stained with various fluorescence-conjugated antibodies specific for the desired cell surface proteins at 4° C. for 30 min. The surface-stained cells were then fixed and permeabilized using the appropriate reagents (e.g. the BD Pharmingen Cytofix/Cytoperm buffer) and stained with different fluorescence-conjugated antibodies specific for the desired intracellular proteins at 4° C. for 2 hours in the permeabilizing buffer (e.g. the BD Perm/Wash buffer). Concentrations of the Abs were used per the manufacturers' recommendations. Finally, the cells were washed twice in the permeabilizing buffer and twice in the FACS buffer before being analyzed on the BD FACSAria II. Data was analyzed using the FlowJo software (Tree Star Inc., Ashland, OR).

MV4-11 cells [2] = assay: qPCR analyses of gene expression changes in TKI-treated MV4-11; format: cell-based, human
Excerpt: MV4-11 cells (3 days after TKI treatment) were harvested and analyzed by reverse transcription quantitative polymerase chain reaction (qPCR). The qPCR data of four genetic aspects including cell death, kinases specialized in phosphorylation of BAD, JAK/STAT signaling pathway, and intrinsic inhibitory pathways were compared. […] Next, to investigate which kinases are responsible for the phosphorylation of BAD (pBAD) after TKI treatment, screenings of those kinase candidates reported to phosphorylate BAD under physiological conditions were conducted. […] Elevated gene expressions of both PIM2 and PIM3 have been found in adult AML patients associated with poor survival.
as §1
RNA Isolation and Real-Time Polymerase Chain Reaction (qPCR) analysis. MV4-11 and MOLM-14 cells were cultured with the presence of TKI drugs for 72 hours or re-plated 28 days after the treatment of TKI drugs. Cells were isolated for RNA isolation and qPCR analysis as previously described. Total RNA was isolated using the RNeasy Micro Kit (Qiagen) according to the manufacturer's instruction. First-strand cDNA was synthesized using the SuperScript III Reverse Transcriptase (Invitrogen; Life Technologies). With an Applied Biosystems 7900HT Real-Time PCR machine, qPCR was performed and analyzed using known primers for the specific markers. The PCR conditions were 10 minutes at 95° C. followed by 40 cycles of 10 seconds at 95° C. and 15 seconds at 60° C. The relative expression level of a gene was determined using the ΔΔCt method and normalized to GAPDH.

MV4-11 cells [3] = assay: Human cytokine proteome profile array of cell-free supernatants from GILT-treated MV4-11; format: cell-based; conditions: 80 nM GILT, MV4-11, vs non-treatment control
Procedure: To identify the protein(s) responsible for initiation of the survival mechanism and subsequent proliferation of AML blasts, human cytokine proteome profile arrays of cell-free supernatants from GILT-treated MV4-11's cultures were performed. […] Under the no treatment (No Tx) condition, MV4-11 releases numerous cytokines such as MIF in their supernatant; however, one dose of GILT-treatment eliminated release of a variety of cytokines such as osteopontin (arrows, FIG. 7A), a protein closely associated with adverse prognosis in AML patients. Next, bone marrow mononuclear cells (BMMNC) from AML patients were treated for 3 days ex vivo.
Proteomics and Blotting Analysis. Three days after the one dose treatment, the cell-free supernatants were collected for human cytokine profile assay. The Human XL Cytokine Array Kit (Catalog #ARY022B, R&D) was used according to the manufacturer's procedures and exposed to X-ray film (<10 minutes). Profiles of mean spot pixel density were created using a transmission-mode scanner and Image J analysis software.

MV4-11 = conditions: cited from earlier work
[4] = MV4-11, 10 days after TKI treatment
[5] = MV4-11, 20 days after TKI treatment
[6] = MV4-11, 3 days after TKI treatment, vs control
[7] = MV4-11, 3 days after TKI treatment, vs control non-treatment cells
[8] = MV4-11, 28 days after TKI treatment
[9] = MV4-11, 10 days after TKI treatment, vs non-treatment control
[10] = MV4-11, 28 days after the treatment
[11] = MV4-11, 28 days after the treatment, vs control non-treatment cells

Row | SMILES | population of viable CD44+pBAD+ cells (MV4-11 cells [1]; [4]) | population of viable Ki67+CD33+CD44+ cells (MV4-11 cells [1]; [4]) | population of viable CD44+pBAD+ cells (MV4-11 cells [1]; [5]) | population of viable Ki67+CD33+CD44+ cells (MV4-11 cells [1]; [5]) | BAD mRNA increase (MV4-11 cells [2]; [7]) | BAX mRNA increase (MV4-11 cells [2]; [7]) | BCL-2 mRNA increase (MV4-11 cells [2]; [7]) | JAK2 mRNA increase (MV4-11 cells [2]; [7]) | PIAS2 mRNA increase (MV4-11 cells [2]; [7]) | PIM2 mRNA increase (MV4-11 cells [2]; [7]) | PIM3 mRNA increase (MV4-11 cells [2]; [7]) | SHP1 mRNA increase (MV4-11 cells [2]; [7]) | SHP2 mRNA increase (MV4-11 cells [2]; [7]) | SOCS1 mRNA increase (MV4-11 cells [2]; [7]) | SOCS3 mRNA increase (MV4-11 cells [2]; [7]) | STAT2 mRNA increase (MV4-11 cells [2]; [7]) | STAT4 mRNA increase (MV4-11 cells [2]; [7]) | TYK2 mRNA increase (MV4-11 cells [2]; [7]) | further results
1 | CCc1nc(C(N)=O)c(Nc2ccc(N3CCC(N4CCN(C)CC4)CC3)c(OC)c2)nc1NC1CCOCC1 [GILT, Gilteritinib] | 28.7% | 17.4% | 1.1% | 1.27% | 23 fold | 68 fold | 49 fold | 6 fold | about 2 fold | 203 fold | 134 fold | about 4 fold | 9 fold | 153 fold | 182 fold | 9 fold | 23 fold | 71 fold | NFκB2 mRNA increase (MV4-11 cells [2]; MV4-11, 80 nM TKI, vs non-treated control): 110 fold; CXCR2 mRNA increase (MV4-11 cells [2]; MV4-11, 3 days after TKI treatment): 109 fold; AKT1 mRNA increase (MV4-11 cells [2]; [6]): 10 fold; PRKACA mRNA increase (MV4-11 cells [2]; [6]): 15 fold; STAT3 mRNA increase (MV4-11 cells [2]; [7]): 2 fold; STAT5A mRNA increase (MV4-11 cells [2]; [7]): 4 fold; CXCR1 mRNA increase (MV4-11 cells [2]; MV4-11, 3 days after TKI treatment, data not shown): about 90 fold; MIF increase in the supernatant (mean pixel density) (MV4-11 cells [3]): 2.6 fold
2 | CC(C)(C)c1cc(NC(=O)Nc2ccc(-c3cn4c(n3)sc3cc(OCCN5CCOCC5)ccc34)cc2)no1 [QUIZ, Quizartinib] | 93.1% | 68.2% | 20.7% | 52.8% | 16 fold | 44 fold | 31 fold | 6 fold | about 2 fold | 120 fold | 81 fold | about 3 fold | 5 fold | 88 fold | 120 fold | 6 fold | 19 fold | 46 fold | dose at which suppression of tumorigenic clustering and c-Kit starts (MV4-11): 80 nM; population of viable CD44+pBAD+ cells (MV4-11 cells [1]; [8]): 0.24%; population of viable Ki67+CD33+CD44+ cells (MV4-11 cells [1]; [8]): 1.58%; PIM1 mRNA decrease (MV4-11 cells [2]; [7]): 0.5 fold; PIAS2 mRNA increase (MV4-11 cells [2]; [9]): 570 fold; PIM2 mRNA increase (MV4-11 cells [2]; [9]): 355 fold; PIM3 mRNA increase (MV4-11 cells [2]; [9]): 494 fold; SHP2 mRNA increase (MV4-11 cells [2]; [9]): 9 fold; SOCS1 mRNA increase (MV4-11 cells [2]; [9]): 615 fold; SOCS3 mRNA increase (MV4-11 cells [2]; [9]): 590 fold; STAT2 mRNA increase (MV4-11 cells [2]; [9]): 14 fold; STAT4 mRNA increase (MV4-11 cells [2]; [9]): 28 fold; TYK2 mRNA increase (MV4-11 cells [2]; [9]): 73 fold; PIM2 mRNA increase (MV4-11 cells [2]; [10]): about 2 fold; PIM3 mRNA increase (MV4-11 cells [2]; [10]): about 2 fold; CISH mRNA increase (MV4-11 cells [2]; [11]): about 2 fold; SOCS1 mRNA increase (MV4-11 cells [2]; [11]): ~4 fold; SOCS3 mRNA increase (MV4-11 cells [2]; [11]): about 2 fold
